Measured values from US9028856B2, “Synergistic pesticide compositions” (priority 2008, dated 2015).

Columns and labels:
[1] = system: Argentine ant, Linepithema humile; assay: Knockdown/mortality of ant workers under continuous exposure on treated glazed tile; conditions: for toxicity / efficacy of the substance alone (summary in words): Argentine ant, treated glazed tile; for Average % Knockdown & Mortality after 2 hr / Average % Knockdown & Mortality after 5 hr: Table 22, imidacloprid/tritylchloride in acetone
Protocol: (§1) Solutions of imidacloprid at 0.5% AI were prepared with and without methyl oleate @0.1, 1.0 and 5.0% in acetone. Treatments were applied using a micropipette to dispense 1 ml of test solution evenly on a 6″×6″ glazed tile. Actual coverage was about 5″×5″ (or 161 cm^2) for easy handling. Treatments were allowed to dry overnight. Ten Argentine ant workers were placed within a fluon or talc-coated PVC ring (φ7.6 cm×H 5.1 cm) under continuous exposure. A small vial filled with a cotton ball soaked in water was added as a drinking source after 3 hours. Treatments were replicated a minimum of three times. Evaluations for ant knockdown/mortality were made at various intervals and at 24 hours after exposure.
as §1, with “MATERIALS AND METHODS: Solutions” for “Solutions”, “linoleate” for “oleate”
as §1, with “MATERIALS AND METHODS: Solutions of” for “Solutions of”, “without methyl palmitate @0.1, 1.0” for “without methyl oleate @0.1, 1.0”, “after exposure. […]” for “after exposure.”

[2] = system: bait averse/resistant German cockroach (T-164 strain); assay: Knockdown/mortality of male cockroaches under continuous exposure on treated glazed tile; assay type: in vivo, Blattella germanica; set-up: Average % Knockdown & Mortality after 5 hr / Average % Knockdown & Mortality after 30 min: concentration or dose not given beside the values; conditions: for toxicity / efficacy of the substance alone (summary in words): German cockroach T-164, treated glazed tile; for Average % Knockdown & Mortality after 3 hr: Table 23, imidacloprid/tritylchloride in acetone, T-164 strain
[3] = system: Red Imported Fire ant (RIFA), Solenopsis invicta; assay: Knockdown/mortality of ant workers under continuous exposure on treated glazed tile; assay type: in vivo; conditions: Table 72, β-cyfluthrin study, Red Imported Fire ant; for Average % Mortality after 15 min: glazed tile, continuous exposure, adjuvant = Compound A 1% + Compound B 0.5%
Excerpt: Treatments were allowed to dry overnight. […] Treatments were replicated minimum three times.
Treatments were allowed to dry overnight. […] Treatments were replicated a minimum of three times.

[4] = Table 10 (Ex. 7), glazed tile, continuous exposure, listed as Methyl Linoleate (1%)
[5] = Table 10 (Ex. 7), glazed tile, continuous exposure, listed as Methyl Linoleate (5%)
[6] = Table 8 (Ex. 5), glazed tile, continuous exposure, listed as Methyl Oleate (1%)
[7] = Table 8 (Ex. 5), glazed tile, continuous exposure, listed as Methyl Oleate (5%)
[8] = Table 7 (Ex. 4), glazed tile, continuous exposure, listed as Oleic acid (0.1%)
[9] = Table 7 (Ex. 4), glazed tile, continuous exposure, listed as Oleic acid (5%)
[10] = Table 19 (Ex. 16), glazed tile, continuous exposure
[11] = Table 19 (Ex. 16), glazed tile, continuous exposure, listed as TBHQ (0.1%)
[12] = Table 19 (Ex. 16), glazed tile, continuous exposure, listed as TBHQ (1%)
[13] = Table 19 (Ex. 16), glazed tile, continuous exposure, listed as TBHQ (5%)
[14] = Table 18 (Ex. 15), glazed tile, continuous exposure, listed as TBHQ (1%)
[15] = Table 18 (Ex. 15), glazed tile, continuous exposure, listed as TBHQ (5%)
[16] = glazed tile, continuous exposure

For `CCCCC/C=C\C/C=C\CCCCCCCC(=O)OC` [Methyl linoleate, methyl linoleate], which “toxicity / efficacy of the substance alone (summary in words)” value (from here on “toxicity / efficacy”) [1] is on record?
Its value is “at high rates (1 & 5%) was toxic”.

And the “Average % Knockdown & Mortality after 4 hr” value ([1]; Table 10 (Ex. 7), glazed tile, continuous exposure, listed as Methyl Linoleate (0.1%))?
The value was 0%.

And the “Average % Knockdown & Mortality after 15 min” value [1, 4]?
The value was 0%.

And the “Average % Knockdown & Mortality after 4 hr” value [1, 4]?
The value was 7%.

And the “Average % Knockdown & Mortality after 15 min” value [1, 5]?
Its value is 7%.

What about the “Average % Knockdown & Mortality after 4 hr” value [1, 5] of the same compound?
The value was 67%.

And the “toxicity / efficacy” value [2]?
Its value is “toxic”.

What about the “Average % Knockdown & Mortality after 15 min” value ([2]; Table 11 (Ex. 8), glazed tile, continuous exposure) of the same compound?
The value was 0%.

With `CCCCCCCC/C=C\CCCCCCCC(=O)OC` [Methyl oleate, methyl oleate] as the compound, how does the “toxicity / efficacy” value [1] read?
The value was “toxic”.

What about the “Average % Knockdown & Mortality after 4 hr” value ([1]; Table 8 (Ex. 5), glazed tile, continuous exposure, listed as Methyl Oleate (0.1%)) of the same compound?
Its value is 13%.

What about the “Average % Knockdown & Mortality after 15 min” value [1, 6] of the same compound?
The value was 0%.

What about the “Average % Knockdown & Mortality after 4 hr” value [1, 6] of the same compound?
The value was 55%.

And the “Average % Knockdown & Mortality after 15 min” value [1, 7]?
The value was 3%.

What about the “Average % Knockdown & Mortality after 4 hr” value [1, 7] of the same compound?
Its value is 100%.

And the “toxicity / efficacy” value [2]?
The value was “at the higher rates (1 & 5%) showed delayed toxic effect”.

And the “Average % Knockdown & Mortality after 15 min” value ([2]; Table 9 (Ex. 6), glazed tile, continuous exposure, listed as Methyl Oleate (1%))?
The value was 0%.

What about the “Average % Knockdown & Mortality after 15 min” value ([2]; Table 9 (Ex. 6), glazed tile, continuous exposure, listed as Methyl Oleate (5%)) of the same compound?
Its value is 7%.

Which results are given for `CCCCCCCCCCCCCCCC(=O)OC` [Methyl palmitate, methyl palmitate]?
toxicity / efficacy of the substance alone (summary in words) [1]: not toxic; Average % Knockdown & Mortality after 3 hr ([1]; Table 12 (Ex. 9), glazed tile, continuous exposure): 0%; Average % Knockdown & Mortality after 7 hr ([1]; Table 12 (Ex. 9), glazed tile, continuous exposure, listed as Methyl Palmitate (1%)): 0%; Average % Knockdown & Mortality after 7 hr ([1]; Table 12 (Ex. 9), glazed tile, continuous exposure, listed as Methyl Palmitate (5%)): 7%; toxicity / efficacy of the substance alone (summary in words) [2]: not toxic; Average % Knockdown & Mortality after 4 hr ([2]; Table 13 (Ex. 10), glazed tile, continuous exposure): 0%

Which results are given for `CCCCCCCC/C=C\CCCCCCCC(=O)O` [Oleic acid]?
toxicity / efficacy of the substance alone (summary in words) [1]: at the high rates (1 & 5%) was toxic to the Argentine ants, but not at the low rate (0.1%); Average % Knockdown & Mortality after 3 hr [1, 8]: 0%; Average % Knockdown & Mortality after 7 hr [1, 8]: 0%; Average % Knockdown & Mortality after 3 hr ([1]; Table 7 (Ex. 4), glazed tile, continuous exposure, listed as Oleic acid (1%)): 82%; Average % Knockdown & Mortality after 3 hr [1, 9]: 100%; Average % Knockdown & Mortality after 7 hr [1, 9]: 100%; toxicity / efficacy of the substance alone (summary in words) [2]: toxic to German cockroaches at the high rate (5%), but not toxic at the two low rates; Average % Knockdown & Mortality after 15 min ([2]; Table 6 (Ex. 3), glazed tile, continuous exposure): 0%

What does the source list for `CC(C)(C)c1cc(O)ccc1O` [TBHQ, tertiary butyl dihydroxyquinone]?
toxicity / efficacy of the substance alone (summary in words) [1]: toxic effect; Average % Knockdown & Mortality after 30 min [1, 10]: 0%; Average % Knockdown & Mortality after 1 hr [1, 10]: 0%; Average % Knockdown & Mortality after 6 hr [1, 11]: 7%; Average % Knockdown & Mortality after 24 hr [1, 11]: 11%; Average % Knockdown & Mortality after 4 hr [1, 12]: 0%; Average % Knockdown & Mortality after 6 hr [1, 12]: 10%; Average % Knockdown & Mortality after 4 hr [1, 13]: 10%; Average % Knockdown & Mortality after 6 hr [1, 13]: 23%; Average % Knockdown & Mortality after 24 hr [1, 13]: 100%; toxicity / efficacy of the substance alone (summary in words) [2]: at the higher rates (1 & 5%) showed delayed toxic effect; Average % Knockdown & Mortality after 30 min ([2]; Table 18 (Ex. 15), glazed tile, continuous exposure): 0%; Average % Knockdown & Mortality after 24 hr ([2]; Table 18 (Ex. 15), glazed tile, continuous exposure, listed as TBHQ (0.1%)): 7%; Average % Knockdown & Mortality after 1 hr [2, 14]: 0%; Average % Knockdown & Mortality after 2 hr [2, 14]: 0%; Average % Knockdown & Mortality after 4 hr [2, 14]: 0%; Average % Knockdown & Mortality after 24 hr [2, 14]: 40%; Average % Knockdown & Mortality after 1 hr [2, 15]: 7%; Average % Knockdown & Mortality after 2 hr [2, 15]: 7%; Average % Knockdown & Mortality after 4 hr [2, 15]: 7%; Average % Knockdown & Mortality after 24 hr [2, 15]: 47%

Which results are given for `ClC(c1ccccc1)(c1ccccc1)c1ccccc1` [Tritylchloride (0.1%)]?
Average % Knockdown & Mortality after 2 hr [1, 16]: 0%; Average % Knockdown & Mortality after 5 hr [1, 16]: 0%; Average % Knockdown & Mortality after 3 hr ([2]; glazed tile): 0%

What does the source list for `ClC(c1ccccc1)(c1ccccc1)c1ccccc1` [Tritylchloride (1%)]?
Average % Knockdown & Mortality after 2 hr [1, 16]: 0%; Average % Knockdown & Mortality after 5 hr [1, 16]: 0%; Average % Knockdown & Mortality after 3 hr ([2]; glazed tile): 0%

With `ClC(c1ccccc1)(c1ccccc1)c1ccccc1` [Tritylchloride (5%)] as the compound, how does the “Average % Knockdown & Mortality after 2 hr” value [1, 16] read?
Its value is 0%.

And the “Average % Knockdown & Mortality after 5 hr” value [1, 16]?
Its value is 0%.

What about the “Average % Knockdown & Mortality after 3 hr” value ([2]; glazed tile) of the same compound?
The value was 0%.

With `ClC(c1ccccc1)(c1ccccc1)c1ccccc1` [Tritylchloride, triphenyl methyl chloride (tritylchloride)] as the compound, how does the “toxicity / efficacy” value [1] read?
The value was “not toxic”.

And the “toxicity / efficacy” value [2]?
Its value is “not toxic”.

Which results are given for `O=C(O)CCc1ccccc1` [benzenepropanoic acid]?
toxicity / efficacy of the substance alone (summary in words) [1]: not toxic; Average % Knockdown & Mortality after 3 hr ([1]; Table 4 (Ex. 1), glazed tile, continuous exposure): 0%; Average % Knockdown & Mortality after 7 hr ([1]; Table 4 (Ex. 1), glazed tile, continuous exposure, listed as Benzenepropanoic acid(1%)): 0%; Average % Knockdown & Mortality after 7 hr ([1]; Table 4 (Ex. 1), glazed tile, continuous exposure, listed as Benzenepropanoic acid(5%)): 7%; toxicity / efficacy of the substance alone (summary in words) [2]: slightly to not toxic; Average % Knockdown & Mortality after 15 min ([2]; Table 5 (Ex. 2), glazed tile, continuous exposure): 0%

What does the source list for `CC1(C)C(C=C(Cl)Cl)C1C(=O)OC(C#N)c1ccc(F)c(Oc2ccccc2)c1` (stereo not drawn) [β-cyfluthrin (.001%)]?
Average % Mortality after 15 min [3]: 39%; Average % Mortality after 30 min [3]: 100%; Average % Mortality after 60 min [3]: 100%; Average % Mortality after 24 hr [3]: 100%

Which results are given for `CC1(C)C(C=C(Cl)Cl)C1C(=O)OC(C#N)c1ccc(F)c(Oc2ccccc2)c1` (stereo not drawn) [β-cyfluthrin (.005%)]?
Average % Mortality after 15 min [3]: 100%; Average % Mortality after 30 min [3]: 100%; Average % Mortality after 60 min [3]: 100%; Average % Mortality after 24 hr [3]: 100%
